Laboratory results reported in US20210315841A1, “CYCLOBENZAPRINE TREATMENT FOR SEXUAL DYSFUNCTION” (TONIX PHARMACEUTICALS HOLDING CORP., priority 2020, published 2021).
Where a name gives a salt, the structure may show the parent alone.

Legend:
[1] = system: participants with military-related PTSD; details: Phase 2 study, drug and placebo groups
Method: (§1) Three randomized, placebo-controlled and double-blind clinical trials of the above described 5.6 mg cyclobenzaprine-HCl sublingual formulation (2×2.8 mg tablets) were performed, a Phase 2 study and a Phase 3 study in military-related PTSD, and a Phase 3 study in predominantly civilian PTSD. […] The present retrospective analysis examined the activity of the cyclobenzaprine-HCl sublingual formulation on the Changes in Sexual Functioning Questionnaire short form (CSFQ-14) in the two Phase 3 studies.

participants with PTSD [2] = details: 5.6 mg dose, all three trials (Phase 2 and two Phase 3)
Method: as §1

[3] = system: females with military-related PTSD; details: 5.6 mg dose (N=8) vs placebo (N=16), 12 weeks
Method: (§2) Methods: In this 12-week, multicenter, adaptive design, randomized controlled fixed-dose trial, 5.6 mg cyclobenzaprine-HCl (2×2.8 mg sublingual tablets, comprising a 75%±2% cyclobenzaprine-HCl and 25%±2% mannitol eutectic and a potassium phosphate dibasic anhydrous basifying agent) taken daily at bedtime was compared to placebo for the treatment of PTSD at 45 U.S. sites. […] A pre-planned interim analysis was conducted when about half the originally planned sample of 550 participants had outcome data.
(§3) The modified intention-to-treat (mITT) population, which included all randomized subjects with at least one post-baseline CAPS-5, included 125 participants treated with 5.6 mg dose per day the above cyclobenzaprine-HCl sublingual formulation and 127 participants on placebo were studied.
Sexual functioning was measured by Changes in Sexual Functioning Questionnaire short-form (CSFQ-14) which is a validated 14-item measure (Keller, McGarvey, Clayton, 2006). Parallel gender-specific versions are administered to males (CSFQ-14-M) and females (CSFQ-14-F), and each sex was analyzed separately. In addition to a total sexual functioning score, there are five sub-scales: desire/frequency, desire/interest, arousal/excitement, orgasm/complete, and pleasure. The scales range from (never) to (every day) and higher scores reflect greater levels of sexual functioning.
(§4) In the Phase 3 study in predominantly civilian PTSD, the inclusion criteria were broadened to include civilian participants with current PTSD, as determined by the CAPS-5. Accordingly, this study included 94% civilian trauma with a minimum baseline severity score of >33 on the CAPS-5. […] Thus, analyses were conducted on the interim analysis sample of 252 participants in the military Phase 3 study (89% male [n=225 M; n=27 F]; 100% military PTSD) and […] subjects in the civilian Phase 3 study (79% female [n=129 F; n=34 M]; 94% civilian PTSD).
(§5) The CSFQ-14 is a validated 14-item measure (Keller, McGarvey, Clayton, 2006) that has male and female versions which were analyzed separately. In addition to a total sexual functioning score, there are five sub-scales: desire/frequency, desire/interest, arousal/excitement, orgasm/complete, and pleasure. The items range on 5-point Likert scale from (never) to (every day). Higher scores reflect greater levels of sexual functioning.

[4] = system: participants with military-related PTSD
Method: as §2, §3

[5] = system: females with military-related PTSD; details: female subgroup (10 active, 17 placebo), 5.6 mg per day sublingual, after 12 weeks of treatment
Method: as §2, §3

[6] = system: females with predominantly civilian PTSD; details: female completers, 5.6 mg dose (N=58) vs placebo (N=55), 12 weeks
Method: as §1, §4, §5

participants with PTSD [7] = details: 5.6 mg sublingual dose, both Phase 3 studies
Method: as §1, §4

[8] = 5.6 mg sublingual daily, military Phase 3 study

Which results are given for CN(C)CCC=C1c2ccccc2C=Cc2ccccc21 [cyclobenzaprine-HCl]?
rates of adverse events related to sexual function [1]: very low rates; activity on clinician- and patient-rated global PTSD symptoms (CGI and PGIC) (participants with PTSD [2]): encouraging activity; CSFQ-14-F arousal/excitement subscale, Hedges' g effect size vs placebo [3]: 0.55; CSFQ-14-F desire/frequency subscale, Hedges' g effect size vs placebo [3]: 0.46; CSFQ-14-F desire/interest subscale, Hedges' g effect size vs placebo [3]: 0.63; CSFQ-14-F orgasm/completion scale, effect vs placebo [3]: No effect; CSFQ-14-F pleasure subscale, Hedges' g effect size vs placebo [3]: 0.54; CSFQ-14-F total score, Hedges' g effect size vs placebo [3]: 0.49; participants with at least one AE leading to study discontinuation ([4]; 5.6 mg dose group, military Phase 3 study (placebo: two)): 8 participants; duration of oral hypoaesthesia (tongue/mouth numbness), the most frequent AE, post administration ([4]; 5.6 mg sublingual daily at bedtime, military Phase 3 study, generally transient): < 60 min; severity of oral hypoaesthesia (most frequent AE) [4, 8]: never rated as severe; severity of somnolence (most common systemic AE) [4, 8]: never rated as severe; observed mean improvement in CAPS-5 over placebo [5]: −9.1 units; CSFQ-14-F arousal/excitement subscale, Hedges' g effect size vs placebo [6]: 0.33; CSFQ-14-F desire/frequency subscale, Hedges' g effect size vs placebo [6]: 0.21; CSFQ-14-F desire/interest subscale, Hedges' g effect size vs placebo [6]: 0.23; CSFQ-14-F orgasm/completion subscale, Hedges' g effect size vs placebo [6]: 0.29; CSFQ-14-F pleasure subscale, Hedges' g effect size vs placebo [6]: 0.19; CSFQ-14-F total score, Hedges' g effect size vs placebo ([6]; p=0.07): 0.37; severity of oral hypoaesthesia (most frequent AE) (participants with PTSD [7]): never rated as severe; severity of somnolence (most common systemic AE) (participants with PTSD [7]): never rated as severe; duration of oral hypoaesthesia (tongue/mouth numbness), the most frequent AE, post administration (participants with PTSD [7]; generally transient): < 60 min
